This note sets out measurements from patent US20220281831A1, “FUSED-GLUTARIMIDE CRBN LIGANDS AND USES THEREOF” (Kymera Therapeutics, Inc., priority 2019, published 2022).

By IC50 is commonly meant the concentration that gives 50% inhibition. A low value points to greater potency.

Sequence of His-tagged CRBN-DDB1 complex (Q96SW2 whole entry): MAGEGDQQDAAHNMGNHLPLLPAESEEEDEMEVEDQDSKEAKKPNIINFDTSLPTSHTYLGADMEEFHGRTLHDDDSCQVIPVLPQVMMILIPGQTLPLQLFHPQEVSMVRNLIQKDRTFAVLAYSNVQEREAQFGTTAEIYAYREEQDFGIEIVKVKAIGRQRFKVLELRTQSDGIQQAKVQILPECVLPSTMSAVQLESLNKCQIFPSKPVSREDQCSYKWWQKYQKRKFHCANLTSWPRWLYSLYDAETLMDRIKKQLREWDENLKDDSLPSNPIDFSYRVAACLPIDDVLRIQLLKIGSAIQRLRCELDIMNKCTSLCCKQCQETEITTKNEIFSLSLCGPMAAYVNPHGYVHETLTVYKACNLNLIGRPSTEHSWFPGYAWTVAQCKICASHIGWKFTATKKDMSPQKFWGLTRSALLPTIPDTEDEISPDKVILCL
Sequence of His-tagged CRBN-DDB1 complex (Q16531 whole entry partner): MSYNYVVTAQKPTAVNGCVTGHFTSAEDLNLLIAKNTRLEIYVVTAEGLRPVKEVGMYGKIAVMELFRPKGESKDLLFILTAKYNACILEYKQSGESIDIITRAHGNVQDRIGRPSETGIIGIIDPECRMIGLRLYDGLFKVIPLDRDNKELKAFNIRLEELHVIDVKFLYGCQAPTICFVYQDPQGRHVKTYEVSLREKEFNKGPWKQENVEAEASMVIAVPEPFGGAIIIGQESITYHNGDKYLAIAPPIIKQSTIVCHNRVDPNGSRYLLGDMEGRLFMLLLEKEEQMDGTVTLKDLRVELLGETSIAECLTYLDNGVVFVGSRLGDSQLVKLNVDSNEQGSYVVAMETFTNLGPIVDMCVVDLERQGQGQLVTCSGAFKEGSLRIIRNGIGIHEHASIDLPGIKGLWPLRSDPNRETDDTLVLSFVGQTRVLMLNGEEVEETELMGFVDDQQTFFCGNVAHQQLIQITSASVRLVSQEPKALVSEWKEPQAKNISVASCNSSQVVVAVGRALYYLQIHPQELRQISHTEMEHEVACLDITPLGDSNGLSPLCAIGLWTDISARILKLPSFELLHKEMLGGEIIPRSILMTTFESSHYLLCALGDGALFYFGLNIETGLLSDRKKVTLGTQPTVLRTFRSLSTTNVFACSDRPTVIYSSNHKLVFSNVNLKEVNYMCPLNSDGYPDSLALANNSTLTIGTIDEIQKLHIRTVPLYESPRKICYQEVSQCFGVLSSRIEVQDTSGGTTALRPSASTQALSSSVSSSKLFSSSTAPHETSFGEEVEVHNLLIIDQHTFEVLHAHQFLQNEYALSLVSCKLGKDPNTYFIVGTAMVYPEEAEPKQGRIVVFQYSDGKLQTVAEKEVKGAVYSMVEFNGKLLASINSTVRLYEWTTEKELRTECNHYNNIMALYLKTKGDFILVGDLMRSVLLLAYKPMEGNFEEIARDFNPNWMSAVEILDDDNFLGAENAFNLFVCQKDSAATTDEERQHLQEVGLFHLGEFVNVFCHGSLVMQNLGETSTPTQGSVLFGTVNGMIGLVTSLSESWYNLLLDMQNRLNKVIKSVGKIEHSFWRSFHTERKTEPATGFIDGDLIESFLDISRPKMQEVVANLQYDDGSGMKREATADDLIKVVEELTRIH
Sequence of CRBN-DDB1 (Q96SW2 whole entry): as the sequence (Q96SW2 whole entry) above
Sequence of CRBN-DDB1 (Q16531 whole entry partner): as the sequence (Q16531 whole entry partner) above

The first test concerns the target His-tagged CRBN-DDB1 complex (Homo sapiens, UniProt Q96SW2). Put plainly: Time-Resolved Fluorescence Resonance Energy Transfer (TR-FRET / HTRF) CRBN binding assay, displacement of Cy5-labeled thalidomide. The conditions noted are these: His-CRBN-DDB1, Cy5-thalidomide 8 nM, 1 hour room temperature.
Turning to `O=C1Cc2cccc(C(=O)N3CCc4ccccc43)c2C(=O)N1` [Compound I-1, 8-(2,3-Dihydroindole-1-carbonyl)-2,4-dihydroisoquinoline-1,3-dione], the IC50 is over 100 µM.
Still for that read-out and setting: as for `NC(=O)c1ccccc1-c1cccc2c1C(=O)NC(=O)C2` [Compound I-2, 2-(1,3-Dioxo-2,4-dihydroisoquinolin-8-yl)benzamide], the figure is over 100 µM; as for `O=C1Cc2cccc(C(=O)N3CCOc4ccccc43)c2C(=O)N1` [Compound I-3, 8-(2,3-Dihydro-1,4-benzoxazine-4-carbonyl)-2,4-dihydroisoquinoline-1,3-dione], over 100 µM.
The same measure, in the same setting: as for `Cc1ccccc1-c1ccc2c(c1)C(=O)NC(=O)C2` [Compound I-4, 7-(2-Methylphenyl)-2,4-dihydroisoquinoline-1,3-dione], the figure is 30 to 100 µM; as for `O=C1Cc2ccccc2C(=O)N1` [Compound I-5, 2,4-Dihydroisoquinoline-1,3-dione], over 100 µM; as for `Cc1ncoc1-c1ccc2c(c1)C(=O)NC(=O)C2` [Compound I-6, 7-(4-Methyl-1,3-oxazol-5-yl)-2,4-dihydroisoquinoline-1,3-dione], over 100 µM.
Same read-out and setting: as for `O=C1Cc2ccc(Br)cc2C(=O)N1` [Compound I-7, 7-Bromo-2,4-dihydroisoquinoline-1,3-dione], the figure is 30 to 100 µM; as for `O=C1Cc2cccc(Br)c2C(=O)N1` [Compound I-8, 8-Bromo-2,4-dihydroisoquinoline-1,3-dione], 10 to 30 µM; as for `Nc1ccc2c(c1)C(=O)NC(=O)C2` [Compound I-12], under 10 µM.
In turn, `Nc1ccccc1-c1ccc2c(c1)C(=O)NC(=O)C2` [Compound I-17, 7-(2-aminophenyl)-2,4-dihydroisoquinoline-1,3-dione] showed an IC50 of over 100 µM.
Turning to `COc1ccccc1-c1ccc2c(c1)C(=O)NC(=O)C2` [Compound I-18, 7-(2-Methoxyphenyl)-2,4-dihydroisoquinoline-1,3-dione], the IC50 is over 100 µM.
Compound `O=C1Cc2ccc(O)cc2C(=O)N1` [Compound I-19, 7-hydroxy-2,4-dihydroisoquinoline-1,3-dione] gave an IC50 of under 10 µM.
Same read-out and setting: the same measure for `NC(=O)c1ccc2c(c1)C(=O)NC(=O)C2` [Compound I-20, 1,3-dioxo-2,4-dihydroisoquinoline-7-carboxamide]: 30 to 100 µM; for `CC(=O)Nc1ccc2c(c1)C(=O)NC(=O)C2` [Compound I-21]: 30 to 100 µM.
On the same count and under the same terms, the same measure for `Nc1cccc2c1C(=O)NC(=O)C2` [Compound I-22, 8-Amino-2,4-dihydroisoquinoline-1,3-dione]: over 100 µM; for `O=C1Cc2cccc(O)c2C(=O)N1` [Compound I-23]: 10 to 30 µM.
The compound `O=C1Cc2cccc(Oc3ccccc3)c2C(=O)N1` [Compound I-26, 8-phenoxy-2,4-dihydroisoquinoline-1,3-dione] registered an IC50 of under 10 µM.
With `O=C1Cc2cccc(Nc3ccccc3)c2C(=O)N1` [Compound I-27, 8-(Phenylamino)-2,4-dihydroisoquinoline-1,3-dione], the IC50 lay in the range of 30 to 100 µM.
As to `O=C1NC(=O)c2c(Br)cccc21` [Compound I-29, 4-bromo-2H-isoindole-1,3-dione], the IC50 is over 100 µM.
With `Cc1ccccc1-c1cccc2c1C(=O)NC2=O` [Compound I-31, 4-(2-methylphenyl)-2H-isoindole-1,3-dione], the IC50 fell in the range of 30 to 100 µM.
On the same count and under the same terms, as for `Cc1ncoc1-c1cccc2c1C(=O)NC2=O` [Compound I-33, 4-(4-methyl-1,3-oxazol-5-yl)-2H-isoindole-1,3-dione], the figure is over 100 µM; as for `CC(=O)Nc1cccc2c1C(=O)NC(=O)C2` [Compound I-42], 10 to 30 µM.
The same measure, in the same setting: the same measure for `O=C1NC(=O)C(F)(F)c2cccc(Br)c21` [Compound I-49]: over 100 µM; for `O=C1NC(=O)C(F)(F)c2cccc(C(=O)N3CCc4ccccc43)c21` [Compound I-50]: over 100 µM; for `N#Cc1ccccc1-c1cccc2c1C(=O)NC(=O)C2` [Compound I-52, 2-(1,3-Dioxo-2,4-dihydroisoquinolin-8-yl)benzonitrile]: 30 to 100 µM.
The compound `O=c1[nH]c(=O)c2cc(Br)ccc2o1` [Compound I-53, 6-Bromo-3H-1,3-benzoxazine-2,4-dione] had an IC50 of over 100 µM.
The same measure, in the same setting: as for `O=c1[nH]c(=O)c2c(Br)cccc2o1` [Compound I-54, 5-Bromo-3H-1,3-benzoxazine-2,4-dione], the figure is over 100 µM; as for `O=C1NC(=O)C2(CC2)c2cccc(Br)c21` [Compound I-58, 8′-Bromo-2′H-spiro[cyclopropane-1,4′-isoquinoline]-1′,3′-dione], over 100 µM; as for `O=C1Cc2cccc(NC(=O)c3ccccc3)c2C(=O)N1` [Compound I-62], under 10 µM.
As for `NCc1cccc2c1C(=O)NC(=O)C2` [Compound I-68], the IC50 lay within 10 to 30 µM.
Compound `Nc1cccc2c1C(=O)NC(=O)C2(F)F` [Compound I-71, 8-Amino-4,4-difluoro-2H-isoquinoline-1,3-dione] came in with an IC50 of under 10 µM.
The same measure, in the same setting: the same measure for `O=C1Cc2c(F)cccc2C(=O)N1` [Compound I-72, 5-Fluoro-2,4-dihydroisoquinoline-1,3-dione]: 10 to 30 µM.

In another test the target is CRBN-DDB1 (Homo sapiens, UniProt Q96SW2). Put plainly: Fluorescence Polarization (FP) CRBN binding assay, probe TM-493 (FAM-BB-100). Conditions: CRBN-DDB1, TM-493 probe, 60 min room temperature. The method, then:
Fluorescence Polarization (FP) Assay
Materials: PerkinElmer EnVision 2104 Multilabel Reader, PerkinElmer FITC FP dual emission Label 2100-8060, Corning 384-well microplate #4514, V-CMR-TM-493 (FAM-BB-100), and CRBN-DDB1-180605.
Methods: Dilution buffer (50 mM HEPES-Na pH 7.5, 100 mM NaCl, 2 mM DTT, and 0.005% Tween-20) and compound DMSO dilutions were prepared. 4× compound working solutions were made with 8% DMSO (4×) and 13.8 μL/well of dilution buffer was placed in a new 96-well plate and 1.2 μL/well of above compound DMSO dilutions were added to the wells. 40 nM (4×) TM-493 in dilution buffer was prepared from a 10 μM DMSO stock and 15 μL per well of the TM-493 working solution was transferred into the compound working solution. 160 nM (2×) CRBN-DDB1 working solution was prepared with Dilution Buffer and 10 μL/well were added into a 384-well plate. 10 μL per well of the TM-493/compound mixture were transferred into the 384-well plate. The “positive control” was sample without protein and compound in 2% DMSO. After incubation at room temperature for 60 min, data was collected and read on data on an EnVision with the following setting: Excitation Light (%): 100; Measurement Height: 9.4; G-Factor: 1; Detector Gain 1: 200; Detector Gain 2: 200; Flash Number: 100. Data was processed using GraphPad Prism 7.0
The compound numbers correspond to the compound numbers in Table 1.
A general note: Polarisation of emitted light reports the rotation of a fluorescent probe.
For the compound `O=C1Cc2cccc(C(=O)N3CCc4ccccc43)c2C(=O)N1` [Compound I-1, 8-(2,3-Dihydroindole-1-carbonyl)-2,4-dihydroisoquinoline-1,3-dione], the IC50 lay within 10 to 30 µM.
For `NC(=O)c1ccccc1-c1cccc2c1C(=O)NC(=O)C2` [Compound I-2, 2-(1,3-Dioxo-2,4-dihydroisoquinolin-8-yl)benzamide], the IC50 was 30 to 100 µM.
Same read-out and setting: the same measure for `O=C1Cc2cccc(C(=O)N3CCOc4ccccc43)c2C(=O)N1` [Compound I-3, 8-(2,3-Dihydro-1,4-benzoxazine-4-carbonyl)-2,4-dihydroisoquinoline-1,3-dione]: 30 to 100 µM.
Turning to `Cc1ccccc1-c1ccc2c(c1)C(=O)NC(=O)C2` [Compound I-4, 7-(2-Methylphenyl)-2,4-dihydroisoquinoline-1,3-dione], the IC50 was over 100 µM.
In the case of `O=C1Cc2ccccc2C(=O)N1` [Compound I-5, 2,4-Dihydroisoquinoline-1,3-dione], the IC50 lay within 30 to 100 µM.
In turn, `Cc1ncoc1-c1ccc2c(c1)C(=O)NC(=O)C2` [Compound I-6, 7-(4-Methyl-1,3-oxazol-5-yl)-2,4-dihydroisoquinoline-1,3-dione] came in with an IC50 of over 100 µM.
Still for that read-out and setting: as for `O=C1Cc2ccc(Br)cc2C(=O)N1` [Compound I-7, 7-Bromo-2,4-dihydroisoquinoline-1,3-dione], the figure is over 100 µM; as for `O=C1Cc2cccc(Br)c2C(=O)N1` [Compound I-8, 8-Bromo-2,4-dihydroisoquinoline-1,3-dione], over 100 µM.
On the same count and under the same terms, the same measure for `Nc1ccc2c(c1)C(=O)NC(=O)C2` [Compound I-12]: 10 to 30 µM; for `Nc1ccccc1-c1ccc2c(c1)C(=O)NC(=O)C2` [Compound I-17, 7-(2-aminophenyl)-2,4-dihydroisoquinoline-1,3-dione]: 30 to 100 µM; for `COc1ccccc1-c1ccc2c(c1)C(=O)NC(=O)C2` [Compound I-18, 7-(2-Methoxyphenyl)-2,4-dihydroisoquinoline-1,3-dione]: 30 to 100 µM.
The compound `O=C1Cc2ccc(O)cc2C(=O)N1` [Compound I-19, 7-hydroxy-2,4-dihydroisoquinoline-1,3-dione] registered an IC50 of over 100 µM.
The same measure, in the same setting: as for `NC(=O)c1ccc2c(c1)C(=O)NC(=O)C2` [Compound I-20, 1,3-dioxo-2,4-dihydroisoquinoline-7-carboxamide], the figure is over 100 µM; as for `CC(=O)Nc1ccc2c(c1)C(=O)NC(=O)C2` [Compound I-21], 10 to 30 µM; as for `Nc1cccc2c1C(=O)NC(=O)C2` [Compound I-22, 8-Amino-2,4-dihydroisoquinoline-1,3-dione], 10 to 30 µM.
Still for that read-out and setting: the same measure for `O=C1Cc2cccc(O)c2C(=O)N1` [Compound I-23]: 30 to 100 µM; for `O=C1Cc2cccc(Oc3ccccc3)c2C(=O)N1` [Compound I-26, 8-phenoxy-2,4-dihydroisoquinoline-1,3-dione]: under 10 µM; for `O=C1Cc2cccc(Nc3ccccc3)c2C(=O)N1` [Compound I-27, 8-(Phenylamino)-2,4-dihydroisoquinoline-1,3-dione]: 30 to 100 µM.
Still for that read-out and setting: the same measure for `O=C1NC(=O)c2c(Br)cccc21` [Compound I-29, 4-bromo-2H-isoindole-1,3-dione]: over 100 µM; for `Cc1ccccc1-c1cccc2c1C(=O)NC2=O` [Compound I-31, 4-(2-methylphenyl)-2H-isoindole-1,3-dione]: over 100 µM.
On to `Cc1ncoc1-c1cccc2c1C(=O)NC2=O` [Compound I-33, 4-(4-methyl-1,3-oxazol-5-yl)-2H-isoindole-1,3-dione], for which the IC50 was over 100 µM.
`CC(=O)Nc1cccc2c1C(=O)NC(=O)C2` [Compound I-42] registered an IC50 of 30 to 100 µM.
On the same count and under the same terms, as for `O=C1NC(=O)C(F)(F)c2cccc(Br)c21` [Compound I-49], the figure is over 100 µM; as for `O=C1NC(=O)C(F)(F)c2cccc(C(=O)N3CCc4ccccc43)c21` [Compound I-50], over 100 µM; as for `N#Cc1ccccc1-c1cccc2c1C(=O)NC(=O)C2` [Compound I-52, 2-(1,3-Dioxo-2,4-dihydroisoquinolin-8-yl)benzonitrile], 30 to 100 µM.
Same read-out and setting: as for `O=c1[nH]c(=O)c2cc(Br)ccc2o1` [Compound I-53, 6-Bromo-3H-1,3-benzoxazine-2,4-dione], the figure is over 100 µM.
`O=c1[nH]c(=O)c2c(Br)cccc2o1` [Compound I-54, 5-Bromo-3H-1,3-benzoxazine-2,4-dione] yielded an IC50 of over 100 µM.
The same measure, in the same setting: the same measure for `O=C1NC(=O)C2(CC2)c2cccc(Br)c21` [Compound I-58, 8′-Bromo-2′H-spiro[cyclopropane-1,4′-isoquinoline]-1′,3′-dione]: over 100 µM.
As to `O=C1Cc2cccc(NC(=O)c3ccccc3)c2C(=O)N1` [Compound I-62], the 50% inhibitory concentration (IC50) lay in the range of 30 to 100 µM.
Take `NCc1cccc2c1C(=O)NC(=O)C2` [Compound I-68]: the IC50 fell in the range of 10 to 30 µM.
Same read-out and setting: as for `Nc1cccc2c1C(=O)NC(=O)C2(F)F` [Compound I-71, 8-Amino-4,4-difluoro-2H-isoquinoline-1,3-dione], the figure is under 10 µM.
The same measure, in the same setting: as for `O=C1Cc2c(F)cccc2C(=O)N1` [Compound I-72, 5-Fluoro-2,4-dihydroisoquinoline-1,3-dione], the figure is over 100 µM.
`O=C1Cc2cccc(Oc3ccccc3Br)c2C(=O)N1` [Compound I-205]: the IC50 was under 10 µM.
Still for that read-out and setting: as for `O=C1Cc2cccc(Oc3ccc(Br)cc3)c2C(=O)N1` [Compound I-206, 8-(4-Bromophenoxy)-2,4-dihydroisoquinoline-1,3-dione], the figure is under 10 µM.
The same measure, in the same setting: the same measure for `O=C1Cc2cccc(Oc3cccc(Br)c3)c2C(=O)N1` [Compound I-207]: under 10 µM; for `O=C1Cc2cccc(C(=O)N(Cc3ccccc3)Cc3ccccc3)c2C(=O)N1` [Compound I-208]: 10 to 30 µM; for `O=C1Cc2cccc(Oc3ccccc3[N+](=O)[O-])c2C(=O)N1` [Compound I-261]: 10 to 30 µM.
`O=C1Cc2cccc(Oc3ccccc3)c2CC(=O)N1` [Compound I-262] displayed a concentration for half-maximal inhibition (IC50) of over 100 µM.
For `Nc1ccccc1Oc1cccc2c1C(=O)NC(=O)C2` [Compound I-263], the concentration for half-maximal inhibition (IC50) is 30 to 100 µM.
On the same count and under the same terms, as for `O=C1Cc2cccc(Oc3cccnc3)c2C(=O)N1` [Compound I-271], the figure is 10 to 30 µM.
